Our source for the TGI and GI50 values is PubChem BioAssay (NCI).

What all share (test): NCI anticancer screen, dose series, 48 h
Test [1] concerns A549 NSCLC.
The subject of test [2] is CAKI-1 renal.
Test [3] deals with CCRF-CEM leukemia.
Test [4] has as its system HCC-2998 colon.
Test [5] deals with NCI-H460 lung.
Test [6] has as its system OVCAR-8 ovarian.
For test [7], the system named is SF-295 CNS.
In test [8] the test system is SNB-19 CNS.
Test [9] deals with SR leukemia.
Test [10] concerns TK-10 renal.

Several values for one entry are separate records, joined by “and”; a condition that tells them apart may be missing. Identical values can stand only once.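 Growth conditions: 96-well plates. Treatment: test compound, 48 hours, 5 concentrations. Analysis: linear interpolation between bracketing concentrations; unreached endpoints set to highest concentration. Here, GI50 denotes the concentration required for 50% inhibition of growth. TGI denotes the concentration required for complete inhibition of growth.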

On to `CC1=NN(C(=O)c2ccc(C)cc2)C(=O)C1N=Nc1ccccc1C(=O)O` (configuration not stated), for which the TGI in [1], in test [2], in [3], in test [4], in [5] and in test [6] was > 100 µM in each case. Further, the TGI in [7] and in [8] was > 100 µM each time.

For `CCOc1cc(/C=C/C(=O)CC(=O)/C=C/c2ccc(OC(=O)CNCCN(CC)CC)c(OCC)c2)ccc1OC(=O)CNCCN(CC)CC`, the GI50 in [1] was 3.81 µM; in [2], 2.12 µM; in test [3] it was 0.394 µM; in test [4] it was 1.65 µM; in test [6], 1.03 µM; in test [7], 6.26 µM. Also, the results for the GI50 in test [8], in test [9] and in test [10] were 2.86 µM, 0.313 µM and 2.6 µM, respectively. Also, the TGI in test [1] is 15.9 µM; in test [2], 6.74 µM; in [3] it was 1.66 µM; in test [4] it was 3.19 µM; in test [6], 12.2 µM; in [7], 23.4 µM. Besides, the figures for the TGI in test [8], in test [9] and in test [10] were 14.2 µM, 1.63 µM and 6.38 µM, respectively.

As for `CCN(CC)C(=S)SSCCO`, the GI50 in [1] is 79.9 µM; in [2] it was 13.6 µM; in [3], 14.5 µM; in test [4] it was 18.9 µM; in test [6], 19.3 µM; in test [7], 33.5 µM. The GI50 in test [8] was 95.4 µM; in test [10], 24 µM. Also, the TGI is > 100 µM in test [1]; 27.5 µM in [2]; 45.2 µM in [3]; 43.3 µM in [4]; 38.7 µM in test [6]; > 100 µM in [7]. Also, the TGI in test [8] was > 100 µM; in [10], 40.8 µM.

Turning to `Cc1ccc2oc3c(ccc(=O)n3C)c(=O)c2c1`, the TGI in test [1], in test [2], in [3], in test [4], in [5] and in test [6] was > 100 µM each time. The TGI in [7], in test [8], in test [9] and in test [10] was > 100 µM throughout.

As to `CO/C(=N\N=C(/c1ccccc1)C(F)(F)F)c1ccncc1`, the TGI in test [2] is > 100 µM; in [3], 77 µM; in [5], > 100 µM; in test [6], > 100 µM; in test [7] it was > 100 µM; in test [8], > 100 µM. Further, the TGI in test [9] is > 100 µM.

Turning to `N/C(=N\N=C/c1cc([N+](=O)[O-])cc([N+](=O)[O-])c1O)NO`, the TGI in [1], in test [2], in [3], in test [4], in [5] and in test [6] was > 100 µM each time. In addition, the TGI in test [7] and in test [8] was > 100 µM in each case.

Turning to `CC(C)(CC1(C)NC(=O)NC1=O)OCc1ccccc1` (configuration not stated), the TGI in [1], in [2], in test [4], in test [5], in test [6] and in test [7] was > 100 µM throughout. In addition, the TGI in [8], in test [9] and in test [10] was > 100 µM each time.

Regarding `Fc1ccc(C(OCCN2CC3CC2CN3)c2ccc(F)cc2)cc1` (configuration not stated), the TGI in test [2] is > 100 µM; in test [3], > 100 µM; in test [4] it was 30.4 µM; in test [5], > 100 µM; in [6] it was > 100 µM; in [7], > 100 µM. The figures for the TGI in [9] and in [10] were 73 µM and > 100 µM, respectively.

As for `CCOC(=O)[C@H]1Nc2c(cccc2[N+](=O)[O-])C2c3ccccc3CC21` (some centres not stated), the TGI in test [1], in test [2], in test [4], in [5], in [6] and in [7] was > 100 µM in each case. Also, the TGI in test [8], in [9] and in test [10] was > 100 µM throughout.

Regarding `CC1CCN(c2cc(-c3cc4ccccc4o3)oc(=O)c2C#N)CC1`, the TGI in test [1], in test [2], in [3], in test [4], in [5] and in test [6] was > 100 µM each time. Also, the TGI in test [7], in test [8], in test [9] and in test [10] was > 100 µM throughout.

For `O=c1[nH]c(=S)[nH]c2c(C3OC(CO)C(O)C3O)nsc12` (configuration not stated), the TGI in [1], in test [2], in test [3], in test [4], in test [5] and in test [6] was > 100 µM each time. Further, the TGI in test [7] and in test [10] was > 100 µM in each case.

In the case of `c1csc(C(NC2=NCCO2)C2CC2)c1` (configuration not stated), the TGI in [1], in test [2], in test [4], in test [5], in [6] and in test [7] was > 100 µM in each case. Further, the TGI in test [8] and in test [9] was > 100 µM throughout.

For `COc1cccc(/C=N/[N-]C(N)=O)c1[O-].[OH3+].[Pd+2]`, the TGI in test [1], in [2], in test [3], in test [4], in test [5] and in [6] was > 100 µM in each case. Moreover, the TGI in test [7], in [8], in [9] and in [10] was > 100 µM each time.

With `CCN1C(=O)N2C(OC)c3ccccc3C(Br)C2(OC)C1=O` (configuration not stated), the TGI in [2], in [3], in test [4], in [5], in test [6] and in test [7] was > 100 µM in each case. The TGI in test [8], in test [9] and in [10] was > 100 µM in each case.

In the case of `CC(=O)Nc1cc(/C=C\C(=O)N2CC(CCl)c3c2cc(N)c2ccccc32)n(C)n1` (configuration not stated), the TGI is 0.0223 µM in [2]; 0.012 µM in test [3]; 0.0733 µM and 0.0826 µM in [4]; > 100 µM in test [10]. Besides, the results for the GI50 in test [7] and in [8] were 0.0426 µM and 0.0277 µM, respectively.

For `Clc1ccc(-c2nnc(-c3nsc4ccccc34)o2)cc1`, the TGI was > 100 µM in test [1]; 93.7 µM in [4]; > 100 µM in [5]; > 100 µM in test [6]; > 100 µM in test [8]; 51.2 µM in [10].

Consider `N=C(N)c1ccc(N=Nc2c(O)ccc3cc(O)ccc23)cc1`, for which the TGI in test [1], in [2], in test [3], in test [4], in test [5] and in [6] was > 100 µM each time. Besides, the TGI in [7], in test [8], in test [9] and in test [10] was > 100 µM throughout.

In the case of `O=S(=O)(c1ccc2ccccc2c1)N1CCN(S(=O)(=O)c2ccc3ccccc3c2)CC1`, the TGI in [1], in [2], in [3], in [4], in [5] and in test [6] was > 100 µM throughout. Also, the TGI in [7], in test [8], in test [9] and in test [10] was > 100 µM each time.

With `O=C(/C=C\c1ccc(/C=C/C(=O)Nc2cccc(C3=NCCCN3)c2)cc1)Nc1cccc(C2=NCCCN2)c1`, the TGI in test [1], in test [3], in [4], in [5], in test [6] and in test [7] was > 100 µM each time. In addition, the TGI in [8] is > 100 µM.
